# Measurements from patent US10780090B2, “Heteroaryl compounds useful as inhibitors of SUMO activating enzyme” (Millennium Pharmaceuticals, Inc., priority 2014, dated 2020).
# Molecular target: recombinant human SAE enzyme (Homo sapiens (Human), UniProt Q9UBT2)
# Assay: SAE HTRF enzyme assay
# Assay type: biochemical
# Settings: for inhibition at 0.111 µM: read-out: Percent Inhibition; for IC50: class symbols A/B/C
# In short: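 HTRF read-out using Eu-cryptate anti-Flag and allophycocyanin anti-GST antibodies, added with EDTA stop buffer and read after 2 h at 24 °C. The preceding reaction ran 105 min at 24 °C: 0.11 nM recombinant SAE, 0.5 μM ATP, Sumo-Flag, Ubc9-GST, pH 7.5. Values given as single-concentration inhibition or IC50.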
# Chain of recombinant human SAE enzyme (Q9UBT2 whole entry): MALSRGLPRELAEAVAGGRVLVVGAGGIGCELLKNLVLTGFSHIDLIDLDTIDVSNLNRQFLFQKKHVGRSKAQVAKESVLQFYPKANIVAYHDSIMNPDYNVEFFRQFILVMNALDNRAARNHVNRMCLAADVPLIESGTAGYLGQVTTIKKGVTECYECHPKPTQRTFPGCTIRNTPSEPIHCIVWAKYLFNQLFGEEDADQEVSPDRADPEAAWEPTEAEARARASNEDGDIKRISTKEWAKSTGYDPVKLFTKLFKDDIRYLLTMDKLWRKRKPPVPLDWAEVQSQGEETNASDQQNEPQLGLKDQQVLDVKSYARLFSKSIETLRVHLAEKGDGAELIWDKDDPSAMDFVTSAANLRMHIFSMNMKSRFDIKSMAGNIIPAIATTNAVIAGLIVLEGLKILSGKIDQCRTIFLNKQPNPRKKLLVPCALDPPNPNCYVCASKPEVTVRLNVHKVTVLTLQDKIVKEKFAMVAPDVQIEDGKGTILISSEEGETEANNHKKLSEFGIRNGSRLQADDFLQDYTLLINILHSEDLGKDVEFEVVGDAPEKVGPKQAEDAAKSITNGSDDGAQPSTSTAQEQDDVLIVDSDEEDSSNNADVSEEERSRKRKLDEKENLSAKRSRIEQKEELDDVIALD
# Chain of recombinant human SAE enzyme (Q9UBE0 whole entry partner): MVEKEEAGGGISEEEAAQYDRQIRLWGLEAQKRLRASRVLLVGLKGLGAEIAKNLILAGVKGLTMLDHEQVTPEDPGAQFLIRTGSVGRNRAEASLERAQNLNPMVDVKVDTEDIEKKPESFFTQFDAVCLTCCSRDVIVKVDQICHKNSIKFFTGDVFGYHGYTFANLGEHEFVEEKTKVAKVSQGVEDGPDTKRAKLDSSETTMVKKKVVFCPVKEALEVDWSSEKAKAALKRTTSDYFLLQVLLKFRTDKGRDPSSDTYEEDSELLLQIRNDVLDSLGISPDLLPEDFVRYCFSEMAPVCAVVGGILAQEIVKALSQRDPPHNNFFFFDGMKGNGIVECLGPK
Compound,inhibition at 0.111 µM (Concentration 0.111 μM) [%],IC50 [nM],Percent Inhibition (Concentration 0.111 μM)
"NS(=O)(=O)OC[C@H]1C[C@@H](Nc2ncncc2C(=O)c2cc(CN3CCc4sccc4C3)cs2)C[C@@H]1O [I-168, {(1R,2S,4R)-4-[(5-{[4-(6,7-dihydrothieno[3,2-c]pyridin-5(4H)-ylmethyl)-2-thienyl]carbonyl}pyrimidin-4-yl)amino]-2-hydroxycyclopentyl}methyl sulfamate]",90,10 to 100,
"Cc1ccn(Cc2csc(C(=O)c3cncnc3N[C@@H]3C[C@H](COS(N)(=O)=O)[C@@H](O)C3)c2)c1 [I-170, [(1R,2S,4R)-2-Hydroxy-4-({[5-({4-[(3-methyl-1H-pyrrol-1-yl)methyl]-2-thienyl}carbonyl)pyrimidin-4-yl]amino}cyclopentyl]methyl sulfamate]",,10 to 100,91
"Cc1sc(C(=O)c2cncnc2N[C@@H]2C[C@H](COS(N)(=O)=O)[C@@H](O)C2)cc1CN1CCc2cccnc21 [I-171, {(1R,2S,4R)-4-[(5-{[4-(2,3-dihydro-1H-pyrrolo[2,3-b]pyridin-1-ylmethyl)-5-methyl-2-thienyl]carbonyl}pyrimidin-4-yl)amino]-2-hydroxycyclopentyl}methyl sulfamate]",90,10 to 100,
"NS(=O)(=O)OC[C@H]1C[C@@H](Nc2ncncc2C(=O)c2cc(CC3=CCSCC3)cs2)C[C@@H]1O [I-173, {(1R,2S,4R)-4-[(5-{[4-(3,6-dihydro-2H-thiopyran-4-ylmethyl)-2-thienyl]carbonyl}pyrimidin-4-yl)amino]-2-hydroxycyclopentyl}methyl sulfamate]",86,10 to 100,
"NS(=O)(=O)OC[C@H]1C[C@@H](Nc2ncncc2C(=O)c2cc(Sc3cccc(Cl)c3)c(Cl)s2)C[C@@H]1O [I-175, [(1R,2S,4R)-4-{[5-({5-chloro-4-[(3-chlorophenyl)sulfanyl]-2-thienyl}carbonyl)pyrimidin-4-yl]amino}-2-hydroxycyclopentyl]methyl sulfamate]",90,10 to 100,
"NS(=O)(=O)OC[C@H]1C[C@@H](Nc2ncncc2C(=O)c2cc(COc3ccccc3OC(F)(F)F)cs2)C[C@@H]1O [I-176, [(1R,2S,4R)-2-hydroxy-4-({5-[(4-{[2-(trifluoromethoxy)phenoxy]methyl}-2-thienyl)carbonyl]pyrimidin-4-yl}amino)cyclopentyl]methyl sulfamate]",87,10 to 100,
"NS(=O)(=O)OC[C@H]1C[C@@H](Nc2ncncc2C(=O)c2cc(CSc3ccccc3)cs2)C[C@@H]1O [I-177, [(1R,2S,4R)-2-hydroxy-4-{[5-({4-[(phenylsulfanyl)methyl]-2-thienyl}carbonyl)pyrimidin-4-yl]amino}cyclopentyl]methyl sulfamate]",85,10 to 100,
"NS(=O)(=O)OC[C@H]1C[C@@H](Nc2ncncc2C(=O)c2cc(CCc3ccc(Cl)cc3)cs2)C[C@@H]1O [I-178, [(1R,2S,4R)-4-{[5-({4-[2-(4-chlorophenyl)ethyl]-2-thienyl}carbonyl)pyrimidin-4-yl]amino}-2-hydroxycyclopentyl]methyl sulfamate]",87,10 to 100,
"N#Cc1sc(C(=O)c2cncnc2N[C@@H]2C[C@H](COS(N)(=O)=O)[C@@H](O)C2)cc1Cc1cccc(Cl)c1 [I-179, {(1R,2S,4R)-4-[(5-{[4-(3-chlorobenzyl)-5-cyano-2-thienyl]carbonyl}pyrimidin-4-yl)amino]-2-hydroxycyclopentyl}methyl sulfamate]",86,10 to 100,
"NS(=O)(=O)OC[C@H]1C[C@@H](Nc2ncncc2C(=O)c2cc(COc3cccc(Cl)c3Cl)cs2)C[C@@H]1O [I-180, [(1R,2S,4R)-4-{[5-({4-[(2,3-dichlorophenoxy)methyl]-2-thienyl}carbonyl)pyrimidin-4-yl]amino}-2-hydroxycyclopentyl]methyl sulfamate]",84,10 to 100,
"Cc1sc(C(=O)c2cncnc2N[C@@H]2C[C@H](COS(N)(=O)=O)[C@@H](O)C2)cc1S(=O)(=O)c1cccc(Cl)c1 [I-181, [(1R,2S,4R)-4-{[5-({4-[(3-chlorophenyl)sulfonyl]-5-methyl-2-thienyl}carbonyl)pyrimidin-4-yl]amino}-2-hydroxycyclopentyl]methyl sulfamate]",82,10 to 100,
"CCc1ccccc1OCc1csc(C(=O)c2cncnc2N[C@@H]2C[C@H](COS(N)(=O)=O)[C@@H](O)C2)c1 [I-182, [(1R,2S,4R)-4-{[5-({4-[(2-ethylphenoxy)methyl]-2-thienyl}carbonyl)pyrimidin-4-yl]amino}-2-hydroxycyclopentyl]methyl sulfamate]",82,10 to 100,
"COc1ccccc1CCc1csc(C(=O)c2cncnc2N[C@@H]2C[C@H](COS(N)(=O)=O)[C@@H](O)C2)c1 [I-183, [(1R,2S,4R)-2-Hydroxy-4-{[5-({4-[2-(2-methoxyphenyl)ethyl]-2-thienyl}carbonyl)pyrimidin-4-yl]amino}cyclopentyl]methyl sulfamate]",82,10 to 100,
"NS(=O)(=O)OC[C@H]1C[C@@H](Nc2ncncc2C(=O)c2cc(Cn3ccc4ccc(C(F)(F)F)cc43)cs2)C[C@@H]1O [I-184, [(1R,2S,4R)-2-hydroxy-4-({5-[(4-{[6-(trifluoromethyl)-1H-indol-1-yl]methyl}-2-thienyl)carbonyl]pyrimidin-4-yl}amino)cyclopentyl]methyl sulfamate]",85,10 to 100,
"N#Cc1cccc(Cc2csc(C(=O)c3cncnc3N[C@@H]3C[C@H](COS(N)(=O)=O)[C@@H](O)C3)c2)c1 [I-185, {(1R,2S,4R)-4-[(5-{[4-(3-cyanobenzyl)-2-thienyl]carbonyl}pyrimidin-4-yl)amino]-2-hydroxycyclopentyl}methyl sulfamate]",80,10 to 100,
"NS(=O)(=O)OC[C@H]1C[C@@H](Nc2ncncc2C(=O)c2cc(Cn3ccc4ccncc43)cs2)C[C@@H]1O [I-186, {(1R,2S,4R)-2-hydroxy-4-[(5-{[4-(1H-pyrrolo[2,3-c]pyridin-1-ylmethyl)-2-thienyl]carbonyl}pyrimidin-4-yl)amino]cyclopentyl}methyl sulfamate]",83,10 to 100,
"NS(=O)(=O)OC[C@H]1C[C@@H](Nc2ncncc2C(=O)c2cc(CN3Cc4ccccc4C3)cs2)C[C@@H]1O [I-187, {(1R,2S,4R)-4-[(5-{[4-(1,3-dihydro-2H-isoindol-2-ylmethyl)-2-thienyl]carbonyl}pyrimidin-4-yl)amino]-2-hydroxycyclopentyl}methyl sulfamate]",76,10 to 100,
"NS(=O)(=O)OC[C@H]1C[C@@H](Nc2ncncc2C(=O)c2cc(COc3ccccc3C(F)(F)F)cs2)C[C@@H]1O [I-188, [(1R,2S,4R)-2-hydroxy-4-({5-[(4-{[2-(trifluoromethyl)phenoxy]methyl}-2-thienyl)carbonyl]pyrimidin-4-yl}amino)cyclopentyl]methyl sulfamate]",79,10 to 100,
"NS(=O)(=O)OC[C@H]1C[C@@H](Nc2ncncc2C(=O)c2cc(Sc3cccc(C(F)(F)F)c3)c(Cl)s2)C[C@@H]1O [I-189, [(1R,2S,4R)-4-({5-[(5-chloro-4-{[3-(trifluoromethyl)phenyl]sulfanyl}-2-thienyl)carbonyl]pyrimidin-4-yl}amino)-2-hydroxycyclopentyl]methyl sulfamate]",78,10 to 100,
"NS(=O)(=O)OC[C@H]1C[C@@H](Nc2ncncc2C(=O)c2cc(CN3CCn4ccnc4C3)cs2)C[C@@H]1O [I-190, {(1R,2S,4R)-4-[(5-{[4-(5,6-dihydroimidazo[1,2-a]pyrazin-7(8H)-ylmethyl)-2-thienyl]carbonyl}pyrimidin-4-yl)amino]-2-hydroxycyclopentyl}methyl sulfamate]",77,10 to 100,
"CC(C)c1ccccc1OCc1csc(C(=O)c2cncnc2N[C@@H]2C[C@H](COS(N)(=O)=O)[C@@H](O)C2)c1 [I-191, [(1R,2S,4R)-2-hydroxy-4-{[5-({4-[(2-isopropylphenoxy)methyl]-2-thienyl}carbonyl)pyrimidin-4-yl]amino}cyclopentyl]methyl sulfamate]",72,10 to 100,
"NS(=O)(=O)OC[C@H]1C[C@@H](Nc2ncncc2C(=O)c2cc(Cn3cnc4ccccc43)cs2)C[C@@H]1O [I-192, {(1R,2S,4R)-4-[(5-{[4-(1H-benzimidazol-1-ylmethyl)-2-thienyl]carbonyl}pyrimidin-4-yl)amino]-2-hydroxycyclopentyl}methyl sulfamate]",66,10 to 100,
"NS(=O)(=O)OC[C@H]1C[C@@H](Nc2ncncc2C(=O)c2cc(CC3=CCOC3)cs2)C[C@@H]1O [I-193, {(1R,2S,4R)-4-[(5-{[4-(2,5-dihydrofuran-3-ylmethyl)-2-thienyl]carbonyl}pyrimidin-4-yl)amino]-2-hydroxycyclopentyl}methyl sulfamate]",72,10 to 100,
"Cc1sc(C(=O)c2cncnc2N[C@@H]2C[C@H](COS(N)(=O)=O)[C@@H](O)C2)cc1Cn1ccc(C#N)c1 [I-194, [(1R,2S,4R)-4-{[5-({4-[(3-cyano-1H-pyrrol-1-yl)methyl]-5-methyl-2-thienyl}carbonyl)pyrimidin-4-yl]amino}-2-hydroxycyclopentyl]methyl sulfamate]",66,10 to 100,
"NS(=O)(=O)OC[C@H]1C[C@@H](Nc2ncncc2C(=O)c2cc(CC3=CCOCC3)cs2)C[C@@H]1O [I-196, {(1R,2S,4R)-4-[(5-{[4-(3,6-dihydro-2H-pyran-4-ylmethyl)-2-thienyl]carbonyl}pyrimidin-4-yl)amino]-2-hydroxycyclopentyl}methyl sulfamate]",63,10 to 100,
